Experimental data taken from ChEMBL document CHEMBL1201862, “PubChem BioAssay data set” (2004).
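These data come from cells grown in 96-well plates and exposed to compound for 48 hours at five concentrations. GI50 is the concentration that inhibits growth by half.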 Active and inactive are the calls of the source. Cut-off read from the data, not from the text of the source: active = GI50 up to about 1.1 µM and inactive = higher.

Legend:
Assay in all cases: NCI tumour cell line growth inhibition, 48 h
[1] = tested on: CCRF-CEM
[2] = tested on: HCT-116
[3] = tested on: A498
[4] = tested on: 786-0
[5] = tested on: K562
[6] = tested on: A549
[7] = tested on: UO-31
[8] = tested on: SNB-75
[9] = tested on: KM12
[10] = tested on: HOP-62
[11] = tested on: M14
[12] = tested on: SNB-19
[13] = tested on: CAKI-1
[14] = tested on: EKVX
[15] = tested on: SN12C
[16] = tested on: HOP-18
[17] = tested on: SF-295
[18] = tested on: OVCAR-4
[19] = tested on: LOX IMVI
[20] = tested on: T47D

SMILES	GI50 [1]	GI50 [2]	GI50 [3]	GI50 [4]	GI50 [5]	GI50 [6]	GI50 [7]	GI50 [8]	GI50 [9]	GI50 [10]	GI50 [11]	GI50 [12]	GI50 [13]	GI50 [14]	GI50 [15]	GI50 [16]	GI50 [17]	GI50 [18]	GI50 [19]	GI50 [20]
C/C(=N/NS(=O)(=O)c1c(C)cc(C)cc1C)c1cccc[n+]1[O-]	> 100 µM (inactive)	> 100 µM (inactive)	> 100 µM (inactive)	> 100 µM (inactive)	> 100 µM (inactive)	> 100 µM (inactive)	> 100 µM (inactive)	76.2 µM (inactive)	> 100 µM (inactive)	> 100 µM (inactive)	> 100 µM (inactive)	> 100 µM (inactive)	> 100 µM (inactive)	> 100 µM (inactive)	> 100 µM (inactive)	> 100 µM (inactive)	> 100 µM (inactive)	> 100 µM (inactive)		
C/C=C1\C[C@@H]2C(OC)Nc3cc(O)c(OC)cc3C(=O)N2C1 (some centres not stated)	< 0.01 µM (active)	< 0.01 µM (active)	0.0273 µM (active)		< 0.01 µM (active)	< 0.01 µM (active)	< 0.01 µM (active)	< 0.01 µM (active)	0.0173 µM (active)	< 0.01 µM (active)	0.00461 µM (active)	0.0074 µM (active)	< 0.01 µM (active)	< 0.0103 µM (active)	< 0.01 µM (active)	0.0213 µM (active)	< 0.01 µM (active)	< 0.01 µM (active)	< 0.01 µM (active)	0.0141 µM (active)
COC(=O)/C(=N\Nc1nnc(C)n1N)C(C#N)c1ccccc1 (configuration not stated)	> 100 µM (inactive)	> 73.1 µM (inactive)		> 39.9 µM (inactive)	> 100 µM (inactive)	> 92.7 µM (inactive)	> 91.4 µM (inactive)	> 64.9 µM (inactive)	> 100 µM (inactive)	> 100 µM (inactive)	> 74.6 µM (inactive)	> 100 µM (inactive)	> 100 µM (inactive)	> 100 µM (inactive)	> 48.4 µM (inactive)	7.05 µM (inactive)	> 100 µM (inactive)	> 40 µM (inactive)	> 64.9 µM (inactive)	> 100 µM (inactive)
O=C1C(c2ccccc2)=C(c2ccccc2)C(c2ccccc2)/C1=C1\C(=O)C(c2ccccc2)=C(c2ccccc2)C1c1ccccc1 (configuration not stated)		> 100 µM (inactive)	> 100 µM (inactive)	> 100 µM (inactive)		> 100 µM (inactive)	> 100 µM (inactive)	> 100 µM (inactive)	> 100 µM (inactive)	> 100 µM (inactive)	41.9 µM (inactive)		> 100 µM (inactive)	> 100 µM (inactive)	> 100 µM (inactive)	> 100 µM (inactive)	> 100 µM (inactive)	> 100 µM (inactive)	> 100 µM (inactive)	
Clc1cccc(N2CCN(CCCN3CCc4c([nH]c5ccccc45)C3c3cccnc3)CC2)c1 (configuration not stated)	6.76 µM (inactive)	5.78 µM (inactive)	10.4 µM (inactive)	3.29 µM (inactive)	3.78 µM (inactive)	7.78 µM (inactive)	5.15 µM (inactive)	11 µM (inactive)	> 10 µM (inactive)	14.3 µM (inactive)	2.01 µM (inactive)	20.6 µM (inactive)	9.68 µM (inactive)	15.3 µM (inactive)	12.8 µM (inactive)	14.3 µM (inactive)	6.92 µM (inactive)	6.98 µM (inactive)	8.17 µM (inactive)	
CC(C)(C)C1C=C(Sc2ccccc2)C(=O)O1 (configuration not stated)	37.4 µM (inactive)	40.1 µM (inactive)	41.9 µM (inactive)	68.9 µM (inactive)	49.3 µM (inactive)	33.3 µM (inactive)	33.7 µM (inactive)	22.8 µM (inactive)	40.6 µM (inactive)	45.4 µM (inactive)	62.1 µM (inactive)	57.9 µM (inactive)	45.6 µM (inactive)	47 µM (inactive)	36.2 µM (inactive)	75.9 µM (inactive)	35.2 µM (inactive)	63.8 µM (inactive)	37.6 µM (inactive)	
CCOC(=O)C1=C(O)C(=O)c2ccccc2C1=O	> 100 µM (inactive)	> 100 µM (inactive)	> 100 µM (inactive)	> 100 µM (inactive)	> 100 µM (inactive)	> 100 µM (inactive)	> 100 µM (inactive)	> 100 µM (inactive)	> 100 µM (inactive)	> 100 µM (inactive)	> 100 µM (inactive)	40.9 µM (inactive)	> 100 µM (inactive)	> 100 µM (inactive)	> 100 µM (inactive)	> 100 µM (inactive)	96.6 µM (inactive)	> 100 µM (inactive)	85.1 µM (inactive)	
Cc1cccc(C)c1N1C(=O)C(=O)C(c2nc3ccccc3s2)/C(=N/NC(=O)c2ccccc2O)C1=O (configuration not stated)	4.8 µM (inactive)	10.3 µM (inactive)	28.6 µM (inactive)	13.2 µM (inactive)	3.8 µM (inactive)	11.7 µM (inactive)	4.78 µM (inactive)	1.05 µM (active)	35.2 µM (inactive)	9.18 µM (inactive)	10.1 µM (inactive)	10.7 µM (inactive)	3.07 µM (inactive)	20.6 µM (inactive)	18.4 µM (inactive)	21.7 µM (inactive)	33.3 µM (inactive)	16.8 µM (inactive)	24.4 µM (inactive)	
O=C1C=C(c2c(O)ccc3ccccc23)c2ccccc2C1=O	1.86 µM (inactive)	2.15 µM (inactive)	8.51 µM (inactive)	2.15 µM (inactive)	3.08 µM (inactive)	5.86 µM (inactive)	2.24 µM (inactive)	3.87 µM (inactive)	3.77 µM (inactive)	13 µM (inactive)	4.69 µM (inactive)	5.96 µM (inactive)	7.93 µM (inactive)	3.15 µM (inactive)	2.58 µM (inactive)	8.81 µM (inactive)	4.19 µM (inactive)	1.92 µM (inactive)	1.77 µM (inactive)	
C[C@]12CCC(=O)C(O)=C1CCC2=O	> 100 µM (inactive)	> 100 µM (inactive)	> 100 µM (inactive)	> 100 µM (inactive)		> 100 µM (inactive)	> 100 µM (inactive)	> 100 µM (inactive)	> 100 µM (inactive)	> 100 µM (inactive)	> 100 µM (inactive)	> 100 µM (inactive)	> 100 µM (inactive)	> 100 µM (inactive)	> 100 µM (inactive)	> 100 µM (inactive)	> 100 µM (inactive)	> 100 µM (inactive)	> 100 µM (inactive)	
COc1cccc2c1C(=O)c1c(O)c3c(c(O)c1C2=O)C[C@@](O)(C(=O)CN1CCOCC1)C[C@@H]3OC1CC(N)C(O)C(C)O1 (some centres not stated)		1.89 µM (inactive)	8.55 µM (inactive)		2.9 µM (inactive)	2.43 µM (inactive)	19 µM (inactive)	5.07 µM (inactive)	4.23 µM (inactive)	2.48 µM (inactive)		2.62 µM (inactive)		10.4 µM (inactive)	2.4 µM (inactive)	0.000832 µM (active)	3.72 µM (inactive)	9.53 µM (inactive)	2.09 µM (inactive)	
CC1=NCCc2cc3[nH]c4ccccc4c3cc21	12.5 µM (inactive)	12.8 µM (inactive)	11.5 µM (inactive)		9.79 µM (inactive)	33.2 µM (inactive)	17.6 µM (inactive)	23.2 µM (inactive)	20.8 µM (inactive)	49.3 µM (inactive)		49.1 µM (inactive)	5.32 µM (inactive)	41.2 µM (inactive)	17.5 µM (inactive)	18.7 µM (inactive)	13.4 µM (inactive)	47.5 µM (inactive)	12.6 µM (inactive)	
Clc1ccc(-c2c(C3=NCCCN3)nnn2-c2ccccc2)cc1	35.9 µM (inactive)	43.1 µM (inactive)	> 100 µM (inactive)	> 100 µM (inactive)	41.7 µM (inactive)	> 100 µM (inactive)	71.9 µM (inactive)	> 100 µM (inactive)	> 100 µM (inactive)	> 100 µM (inactive)	> 100 µM (inactive)	> 100 µM (inactive)	> 100 µM (inactive)	> 100 µM (inactive)	> 100 µM (inactive)	> 100 µM (inactive)	> 100 µM (inactive)	> 100 µM (inactive)	24.9 µM (inactive)	
COc1ccccc1NC(=O)C1=C(C)NC(C)=C(C(=O)Nc2ccccc2OC)C1c1ccccc1Cl	38.4 µM (inactive)	52.8 µM (inactive)	> 100 µM (inactive)	> 100 µM (inactive)	32.7 µM (inactive)	41.6 µM (inactive)	28.5 µM (inactive)	46.9 µM (inactive)	61 µM (inactive)	> 100 µM (inactive)	91 µM (inactive)	> 100 µM (inactive)	> 100 µM (inactive)	53.5 µM (inactive)	> 100 µM (inactive)	> 100 µM (inactive)	> 100 µM (inactive)	> 100 µM (inactive)	> 100 µM (inactive)	
C=C1C(=O)[C@@]23CC[C@H]4[C@@](C)(CCC[C@@]4(C)C(=O)OC)[C@@H]2CC[C@]1(O)C3	0.2 µM (active)	0.953 µM (active)	1.71 µM (inactive)		0.604 µM (active)	3.1 µM (inactive)	2.32 µM (inactive)	2.37 µM (inactive)	2.39 µM (inactive)	20.2 µM (inactive)		13 µM (inactive)	1.55 µM (inactive)	2.06 µM (inactive)	1.77 µM (inactive)	2.07 µM (inactive)	5.82 µM (inactive)	1.89 µM (inactive)	0.953 µM (active)	
